Data on two molecules can be found in article PMC2246842, “Decrease of prostaglandin I2 binding sites in thyroid cancer” (British Journal of Cancer, 1988).

Structures are written as SMILES. Where “and” joins values, the source holds several entries; their conditions need not be identical. Identical values can stand only once.

For series [1], the target named is T1, prostaglandin I2 (prostacyclin, PGI2) binding sites (Homo sapiens, UniProt P43119). Briefly: [3H]iloprost saturation binding (vacuum filtration, Scatchard analysis) on benign solitary thyroid adenoma membrane fraction.
Series [2] addresses T1, prostaglandin I2 (prostacyclin, PGI2) binding sites. The experiment in a line: [3H]iloprost saturation binding (vacuum filtration, Scatchard analysis) on less differentiated and anaplastic thyroid cancer membrane fraction. As to the method: (§1) For comparative studies saturation experi- ments were performed. […] Values are given as x +s.d. Student's t-test was employed for paired data. […] Each point represents the average of 6 separate experiments. […] Each point represents the average of 5 separate determinations.

Series [3] has as its target prostaglandin I2 (prostacyclin, PGI2) binding sites. The experiment in a line: [3H]iloprost saturation binding (vacuum filtration, Scatchard analysis) on normal thyroid membrane fraction. Also on record: species or system human. The following applies: normal thyroid tissue, 4 C, 40 min, mean +/- s.d.; read-out: equilibrium dissociation constant (Kd), low affinity binding sites. As to the method: as §1

For series [4], the target named is T1, prostaglandin I2 (prostacyclin, PGI2) binding sites. Described as above. As to the method:
as §1

The target is the same in series [5]. Briefly: [3H]iloprost saturation binding (vacuum filtration, Scatchard analysis) on well differentiated thyroid cancer membrane fraction. The method, then: as §1
Details of series [6]: method as in Moncada et al., 1976. The following applies: pH 7.4; degradation to 6-oxo-PGF1a; ref Moncada et al., 1976; cited from earlier work.

Usually Kd stands for the concentration at which binding is half-saturated.

T1 sequence (P43119 1-383): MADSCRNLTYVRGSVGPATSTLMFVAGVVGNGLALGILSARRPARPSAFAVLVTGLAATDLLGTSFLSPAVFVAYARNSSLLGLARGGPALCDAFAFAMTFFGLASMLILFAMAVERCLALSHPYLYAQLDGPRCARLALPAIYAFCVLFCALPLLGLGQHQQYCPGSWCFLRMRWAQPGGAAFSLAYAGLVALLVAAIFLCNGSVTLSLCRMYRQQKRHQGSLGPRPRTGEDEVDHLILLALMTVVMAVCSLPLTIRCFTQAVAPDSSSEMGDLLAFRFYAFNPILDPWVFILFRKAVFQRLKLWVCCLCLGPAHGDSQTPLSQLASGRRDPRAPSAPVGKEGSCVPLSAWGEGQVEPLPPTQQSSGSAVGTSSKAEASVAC

As for `CC#CCC(C)[C@H](O)/C=C/[C@@H]1[C@H]2C/C(=C/CCCC(=O)O)C[C@H]2C[C@H]1O` (stereo partly drawn) [[3H]iloprost, iloprost], in series [1], the “Bmax, high affinity binding sites” value is reported as 325.8 ± 110.0. Also, in series [2], the Bmax was 218.1 fmol mg- 1 protein and 176.0 fmol mg- 1 protein and 153.2 fmol mg- 1 protein and 165.3 fmol mg- 1 protein and 190.6 fmol mg- 1 protein; the “Bmax, high affinity binding sites” value is 180.6 ± 25.1; the “diminution of [3H]iloprost high affinity binding sites” value is around 70%. Besides, the Kd in series [3] was determined as 132 nM. Further, in series [4], the “binding capacity (Bmax), high affinity binding sites” value was 613.2 ± 130.4. Further, in series [5], the Bmax was 328.9 fmol mg- 1 protein and 359.2 fmol mg- 1 protein and 253.6 fmol mg- 1 protein and 255.5 fmol mg- 1 protein and 301.2 fmol mg- 1 protein; the “Bmax, high affinity binding sites” value came out at 299.7 ± 46.0.

Consider `CCCCC[C@H](O)/C=C/[C@@H]1[C@H]2C/C(=C/CCCC(=O)O)O[C@H]2C[C@H]1O` [PGI2, prostaglandin I2], for which the “stability in aqueous medium” value in series [6] is given as “rapid hydrolysis”.
